Source: PubChem BioAssay AID1259407 (Chemical Carcinogenesis Research Information System (CCRIS), 2018)
Activity calls are given as the source filed them. The rule behind the calls is not given here.

Tested on: CCRIS mutagenicity, Ames/micronucleus/aberration tests
Experiment: CCRIS mutagenicity studies
[1] = Test System: AMES SALMONELLA TYPHIMURIUM, Strain/Indicator: TA98, Metabolic Activation: NONE, Method: PREINCUBATION
[2] = Test System: AMES SALMONELLA TYPHIMURIUM, Strain/Indicator: TA100, Metabolic Activation: NONE, Method: PREINCUBATION
[3] = Test System: AMES SALMONELLA TYPHIMURIUM, Strain/Indicator: TA1535, Metabolic Activation: NONE, Method: PREINCUBATION
[4] = Test System: AMES SALMONELLA TYPHIMURIUM, Strain/Indicator: TA1537, Metabolic Activation: NONE, Method: PREINCUBATION

For `C=C1/C(=C\C=C2/CCC[C@]3(C)[C@@H]([C@H](C)/C=C/[C@@H](O)C4CC4)CC[C@@H]23)C[C@@H](O)C[C@@H]1O`, the mutagenic call [1] was “inactive; negative”, the mutagenic call (Test System: AMES SALMONELLA TYPHIMURIUM, Strain/Indicator: TA98, Metabolic Activation: S-9, Method: PREINCUBATION) was “inactive; negative” and the mutagenic call [2] was “inactive; negative”. The mutagenic call (Test System: AMES SALMONELLA TYPHIMURIUM, Strain/Indicator: TA100, Metabolic Activation: S-9, Method: PREINCUBATION) was “inactive; negative”, the mutagenic call [3] was “inactive; negative” and the mutagenic call (Test System: AMES SALMONELLA TYPHIMURIUM, Strain/Indicator: TA1535, Metabolic Activation: S-9, Method: PREINCUBATION) was “inactive; negative”. The mutagenic call [4] was “inactive; negative”, the mutagenic call (Test System: AMES SALMONELLA TYPHIMURIUM, Strain/Indicator: TA1537, Metabolic Activation: S-9, Method: PREINCUBATION) was “inactive; negative” and the mutagenic call (Test System: E. COLI, Strain/Indicator: WP2 UVRA, Metabolic Activation: NONE, Method: PREINCUBATION) was “inactive; negative”. The mutagenic call (Test System: E. COLI, Strain/Indicator: WP2 UVRA, Metabolic Activation: S-9, Method: PREINCUBATION) was “inactive; negative”.

In the case of `F`, the mutagenic call (End Point: IN VIVO MICRONUCLEUS, Test System: BONE MARROW POLYCHROMATIC ERYTHROCYTES, Species: MOUSE, Strain/Sex: DDY/MALE, Route: IP) is reported as “inactive; negative”, the mutagenic call (Test System: AMES SALMONELLA TYPHIMURIUM, Strain/Indicator: TA97A, Metabolic Activation: NONE, Method: STANDARD PLATE) is reported as “inactive; negative” and the mutagenic call (Test System: AMES SALMONELLA TYPHIMURIUM, Strain/Indicator: TA97A, Metabolic Activation: RAT, LIVER, S-9, AROCLOR 1254, Method: STANDARD PLATE) is reported as “inactive; negative”. For the same molecule, the mutagenic call (Test System: AMES SALMONELLA TYPHIMURIUM, Strain/Indicator: TA98, Metabolic Activation: HAMSTER, LIVER, S-9, AROCLOR 1254 (10%), Method: PREINCUBATION) was “inactive; negative”, the mutagenic call (Test System: AMES SALMONELLA TYPHIMURIUM, Strain/Indicator: TA98, Metabolic Activation: NONE, Method: FLUCTUATION TEST) was “inactive; negative” and the mutagenic call [1] was “inactive; negative”. For the same molecule, the mutagenic call (Test System: AMES SALMONELLA TYPHIMURIUM, Strain/Indicator: TA98, Metabolic Activation: NONE, Method: STANDARD PLATE) was “inactive; negative”, the mutagenic call (Test System: AMES SALMONELLA TYPHIMURIUM, Strain/Indicator: TA98, Metabolic Activation: RAT, LIVER, S-9, AROCLOR 1254 (10%), Method: PREINCUBATION) was “inactive; negative” and the mutagenic call (Test System: AMES SALMONELLA TYPHIMURIUM, Strain/Indicator: TA98, Metabolic Activation: RAT, LIVER, S-9, AROCLOR 1254, Method: STANDARD PLATE) was “inactive; negative”. The mutagenic call (Test System: AMES SALMONELLA TYPHIMURIUM, Strain/Indicator: TA98, Metabolic Activation: RAT, LIVER, S-9, AROCLOR, Method: PREINCUBATION) was “inactive; negative”, the mutagenic call (Test System: AMES SALMONELLA TYPHIMURIUM, Strain/Indicator: TA98, Metabolic Activation: RAT, LIVER, S-9, PCB, Method: FLUCTUATION TEST) was “inactive; negative” and the mutagenic call (Test System: AMES SALMONELLA TYPHIMURIUM, Strain/Indicator: TA98, Metabolic Activation: RAT, LIVER, S-9, PCB, Method: STANDARD PLATE) was “inactive; negative”. For the same molecule, the mutagenic call (Test System: AMES SALMONELLA TYPHIMURIUM, Strain/Indicator: TA98, Metabolic Activation: RAT, LIVER, S-9, PHENOBARBITAL, Method: STANDARD PLATE) was “inactive; negative”, the mutagenic call (Test System: AMES SALMONELLA TYPHIMURIUM, Strain/Indicator: TA100, Metabolic Activation: HAMSTER, LIVER, S-9, AROCLOR 1254 (10%), Method: PREINCUBATION) was “inactive; negative” and the mutagenic call (Test System: AMES SALMONELLA TYPHIMURIUM, Strain/Indicator: TA100, Metabolic Activation: NONE, Method: FLUCTUATION TEST) was “inactive; negative”. The mutagenic call [2] was “inactive; negative”, the mutagenic call (Test System: AMES SALMONELLA TYPHIMURIUM, Strain/Indicator: TA100, Metabolic Activation: NONE, Method: STANDARD PLATE) was “inactive; negative” and the mutagenic call (Test System: AMES SALMONELLA TYPHIMURIUM, Strain/Indicator: TA100, Metabolic Activation: RAT, LIVER, S-9, AROCLOR 1254 (10%), Method: PREINCUBATION) was “inactive; negative”. For the same molecule, the mutagenic call (Test System: AMES SALMONELLA TYPHIMURIUM, Strain/Indicator: TA100, Metabolic Activation: RAT, LIVER, S-9, AROCLOR 1254, Method: STANDARD PLATE) was “inactive; negative”, the mutagenic call (Test System: AMES SALMONELLA TYPHIMURIUM, Strain/Indicator: TA100, Metabolic Activation: RAT, LIVER, S-9, AROCLOR, Method: PREINCUBATION) was “inactive; negative” and the mutagenic call (Test System: AMES SALMONELLA TYPHIMURIUM, Strain/Indicator: TA100, Metabolic Activation: RAT, LIVER, S-9, PCB, Method: FLUCTUATION TEST) was “inactive; negative”. For the same molecule, the mutagenic call (Test System: AMES SALMONELLA TYPHIMURIUM, Strain/Indicator: TA100, Metabolic Activation: RAT, LIVER, S-9, PCB, Method: STANDARD PLATE) was “inactive; negative”, the mutagenic call (Test System: AMES SALMONELLA TYPHIMURIUM, Strain/Indicator: TA100, Metabolic Activation: RAT, LIVER, S-9, PHENOBARBITAL, Method: STANDARD PLATE) was “inactive; negative” and the mutagenic call (Test System: AMES SALMONELLA TYPHIMURIUM, Strain/Indicator: TA102, Metabolic Activation: NONE, Method: STANDARD PLATE) was “inactive; negative”. For the same molecule, the mutagenic call (Test System: AMES SALMONELLA TYPHIMURIUM, Strain/Indicator: TA102, Metabolic Activation: RAT, LIVER, S-9, AROCLOR 1254, Method: STANDARD PLATE) was “inactive; negative”, the mutagenic call (Test System: AMES SALMONELLA TYPHIMURIUM, Strain/Indicator: TA1535, Metabolic Activation: HAMSTER, LIVER, S-9, AROCLOR 1254 (10%), Method: PREINCUBATION) was “inactive; negative” and the mutagenic call [3] was “inactive; negative”. The mutagenic call (Test System: AMES SALMONELLA TYPHIMURIUM, Strain/Indicator: TA1535, Metabolic Activation: NONE, Method: STANDARD PLATE) was “inactive; negative”, the mutagenic call (Test System: AMES SALMONELLA TYPHIMURIUM, Strain/Indicator: TA1535, Metabolic Activation: RAT, LIVER, S-9, AROCLOR 1254 (10%), Method: PREINCUBATION) was “inactive; negative” and the mutagenic call (Test System: AMES SALMONELLA TYPHIMURIUM, Strain/Indicator: TA1535, Metabolic Activation: RAT, LIVER, S-9, AROCLOR 1254, Method: STANDARD PLATE) was “inactive; negative”. The mutagenic call (Test System: AMES SALMONELLA TYPHIMURIUM, Strain/Indicator: TA1535, Metabolic Activation: RAT, LIVER, S-9, AROCLOR, Method: PREINCUBATION) was “inactive; negative”, the mutagenic call (Test System: AMES SALMONELLA TYPHIMURIUM, Strain/Indicator: TA1537, Metabolic Activation: HAMSTER, LIVER, S-9, AROCLOR 1254 (10%), Method: PREINCUBATION) was “inactive; negative” and the mutagenic call [4] was “inactive; negative”. For the same molecule, the mutagenic call (Test System: AMES SALMONELLA TYPHIMURIUM, Strain/Indicator: TA1537, Metabolic Activation: RAT, LIVER, S-9, AROCLOR 1254 (10%), Method: PREINCUBATION) was “inactive; negative”, the mutagenic call (Test System: AMES SALMONELLA TYPHIMURIUM, Strain/Indicator: TA1537, Metabolic Activation: RAT, LIVER, S-9, AROCLOR, Method: PREINCUBATION) was “inactive; negative” and the mutagenic call (Test System: AMES SALMONELLA TYPHIMURIUM, Strain/Indicator: TA1538, Metabolic Activation: NONE, Method: PREINCUBATION) was “inactive; negative”. For the same molecule, the mutagenic call (Test System: AMES SALMONELLA TYPHIMURIUM, Strain/Indicator: TA1538, Metabolic Activation: RAT, LIVER, S-9, AROCLOR, Method: PREINCUBATION) was “inactive; negative”, the mutagenic call (Test System: CHINESE HAMSTER OVARY, Strain/Indicator: CHO-K1-BH4 (HGPRT), Metabolic Activation: NONE, Method: SUSPENSION/PLATE) was “inactive; negative” and the mutagenic call (Test System: CHINESE HAMSTER OVARY, Strain/Indicator: CHO-K1-BH4 (HGPRT), Metabolic Activation: RAT, LIVER, S-9, AROCLOR, Method: SUSPENSION/PLATE) was “inactive; negative”. The mutagenic call (Test System: CHINESE HAMSTER V-79, Strain/Indicator: V-79 (HGPRT)/6-THIOGUANINE, Metabolic Activation: NONE) was “inactive; negative”, the mutagenic call (Test System: CHINESE HAMSTER V-79, Strain/Indicator: V-79/6-THIOGUANINE, Metabolic Activation: NONE) was “inactive; negative” and the mutagenic call (Test System: E.COLI, Strain/Indicator: WP2 UVRA, Metabolic Activation: NONE, Method: FLUCTUATION TEST) was “inactive; negative”. The mutagenic call (Test System: E.COLI, Strain/Indicator: WP2 UVRA, Metabolic Activation: RAT, LIVER, S-9, PCB, Method: FLUCTUATION TEST) was “inactive; negative”, the mutagenic call (Test System: MOUSE LYMPHOMA, Strain/Indicator: L5178Y (TK+/TK-), Metabolic Activation: NONE, Method: SUSPENSION/PLATE) was “active; positive” and the mutagenic call (Test System: MOUSE LYMPHOMA, Strain/Indicator: L5178Y (TK+/TK-), Metabolic Activation: RAT, LIVER, S-9, AROCLOR 1254, Method: SUSPENSION/PLATE) was “active; positive”.
